Tests used:
[1] = target: RhaR (Escherichia coli, UniProt P09378); assay: EMSA, inhibition of DNA binding by purified protein
[2] = target: RhaS (Escherichia coli, UniProt P09377, L201R); assay: as above
[3] = target: LacI (UniProt P03023 1-360); assay: EMSA
[4] = target: T1, GB1b-RhaR (UniProt P09378 1-282); assay: EMSA
T1 sequence: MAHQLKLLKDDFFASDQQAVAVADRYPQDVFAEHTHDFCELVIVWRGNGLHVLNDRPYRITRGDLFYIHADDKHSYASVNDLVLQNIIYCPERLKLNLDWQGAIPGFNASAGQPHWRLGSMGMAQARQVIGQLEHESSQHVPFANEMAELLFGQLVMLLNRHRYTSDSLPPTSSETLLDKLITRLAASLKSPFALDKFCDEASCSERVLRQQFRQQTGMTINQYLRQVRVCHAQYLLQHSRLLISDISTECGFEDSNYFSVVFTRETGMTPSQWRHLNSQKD

Sequence of LacI (P03023 whole entry): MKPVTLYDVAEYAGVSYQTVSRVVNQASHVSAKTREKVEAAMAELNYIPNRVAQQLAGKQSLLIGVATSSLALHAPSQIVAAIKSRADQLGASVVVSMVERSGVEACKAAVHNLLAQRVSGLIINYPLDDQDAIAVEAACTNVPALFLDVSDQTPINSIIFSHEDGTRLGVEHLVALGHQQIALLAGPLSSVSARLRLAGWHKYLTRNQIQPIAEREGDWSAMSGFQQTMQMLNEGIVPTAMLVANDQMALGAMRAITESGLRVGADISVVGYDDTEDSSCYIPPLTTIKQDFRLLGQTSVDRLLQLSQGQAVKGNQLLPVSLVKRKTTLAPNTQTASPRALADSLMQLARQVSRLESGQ
Sequence of RhaS (P09377 whole entry L201R): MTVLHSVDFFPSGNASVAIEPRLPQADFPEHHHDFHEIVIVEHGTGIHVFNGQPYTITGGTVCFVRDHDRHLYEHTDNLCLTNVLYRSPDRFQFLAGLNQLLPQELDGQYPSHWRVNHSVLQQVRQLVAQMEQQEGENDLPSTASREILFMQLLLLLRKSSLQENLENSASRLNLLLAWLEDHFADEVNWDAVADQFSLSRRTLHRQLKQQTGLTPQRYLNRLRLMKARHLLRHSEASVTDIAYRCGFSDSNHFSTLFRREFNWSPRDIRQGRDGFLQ

Work on CCCCN1C=C(c2ccc3ccccc3n2)C(C[N+](=O)[O-])c2ccccc21 (stereo not shown) [OSSL_051168, 1-butyl-4-nitromethyl-3-quinolin-2-yl-4H-quinoline] yielded an IC50 [1] of ~140 µM and an IC50 [2] of ~70 µM.

B1: lac O1 probe (IR O1-For/O1-Rev) (dsDNA)
DNA 1: TGTTGTGTGGAATTGTGAGCGGATAACAATTTCACACAGG
DNA 2: CCTGTGTGAAATTGTTATCCGCTCACAATTCCACACAACA
B1: binds [3].

B2: RhaR site probe (oligos 3056/3287) (dsDNA)
DNA 1: CGCTGTATCTTGAAAAATCGACGTTTTTTACGTGGTTTTCCGTCGAAAATTTAAGGTAAGAAC
DNA 2: GTTCTTACCTTAAATTTTCGACGGAAAACCACGTAAAAAACGTCGATTTTTCAAGATACAGCG
B2: binds [4].
